Measurements published in patent US12568967B2, “Compositions comprising pyridine carboxylate herbicides with synthetic auxin herbicides or auxin transport inhibitors” (priority 2018, dated 2026).
Several values for one entry are separate records, joined by “and”; a condition that tells them apart may be missing. Identical values can stand only once.

What was measured:
[1] = test system: Chenopodium album L. (common lambsquarters, CHEAL); experiment: Greenhouse postemergence trial CHEAL; type: in vivo;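 further: greenhouse plants sprayed at second to third true leaf stage, injury rated by eye after 20-22 d versus solvent-blank sprayed controls, 0 = no injury, 100 = complete kill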
[2] = test system: Ipomoea hederacea (ivyleaf morningglory, IPOHE); experiment: Greenhouse postemergence trial IPOHE; type: in vivo; details: Dichlorprop-K 280 g/ha (Table 40)
[3] = test system: Cirsium arvense (Canadian thistle, CIRAR); experiment: Greenhouse postemergence trial CIRAR; type: in vivo
[4] = test system: Rumex obtusifolius (broad-leaf dock, RUMOB); experiment: Greenhouse postemergence trial RUMOB; type: in vivo; details: Dichlorprop-K 280 g/ha (Table 40)
[5] = test system: Kochia scoparia (kochia, KCHSC); experiment: Greenhouse postemergence trial KCHSC; type: in vivo
[6] = test system: Helianthus annuus (common sunflower, HELAN); experiment: Greenhouse postemergence trial HELAN; type: in vivo; details: Dichlorprop-K 280 g/ha (Table 40)
Method: (§1) Seeds of the desired test plant species were planted in a 90:10% v/v (volume/volume) mixture of PRO-MIX® BX (Premier Tech Horticulture, Quakertown, PA, USA) and PROFILE® GREENS GRADE™ (Profile Products LLC, Buffalo Grove, IL, USA) planting mixture, which typically has a pH of 5.2 to 6.2 and an organic matter content of at least 50 percent, in plastic pots with a surface area of 103.2 square centimeters (cm^2). […] The plants were grown for 7-36 days (d) in a greenhouse with an approximate 14-hour (h) photo-period which was maintained at about 23° C. during the day and 22° C. during the night. Nutrients and water were added on a regular basis and supplemental lighting was provided with overhead metal halide 1000-Watt lamps as necessary. The plants were employed for testing when they reached the second or third true leaf stage.
(§2) Emulsifiable concentrates of each of each pyridine carboxylate herbicide (Compound A or Compound B) were prepared at 100 grams acid equivalent per liter (g ae/L). The emulsifiable concentrates also included a safener, cloquintocet-mexyl, at 120 grams active ingredient per liter (g ai/L), unless otherwise noted below. An aliquot of each emulsifiable concentrate was placed in a 25 mL glass vial and diluted with an aqueous mixture of 1.25% (v/v) ACTIROB® B esterified rapeseed oil (Bayer Crop Science, Research Triangle Park, NC, USA) or MSO® Concentrate with LECI-TECH® methylated soybean oil (Loveland Products, Loveland, CO, USA) to obtain concentrated stock solutions at the highest application rate for each herbicide, based upon a 12 milliliter (mL) application volume at a rate of 187 liters per hectare (L/ha). The concentrated stock solutions were further diluted with an aqueous mixture of 1.25% v/v ACTIROB® B or MSO® Concentrate with LECI-TECH® to obtain stock solutions at reduced application rates for each herbicide. Spray solutions of the herbicide combinations (Compound A or Compound B plus synthetic auxin herbicide or auxin transport inhibitor) were prepared by adding weighed amounts or aliquots of the synthetic auxin herbicide or auxin transport inhibitor to the stock solutions of Compound A or Compound B to form 12-mL spray solutions in two-way combinations.
(§3) The spray solutions were applied to the plant material with an overhead Mandel track sprayer equipped with 8002E nozzles calibrated to deliver 187 L/ha over an application area of 0.503 square meters (m^2) at a spray height of 18 inches (43 centimeters (cm)) above the average plant canopy. Control plants were sprayed in the same manner with the solvent blank. All pyridine carboxylate herbicide (component a) application rates are given as “g ae/ha” and all synthetic auxin herbicide or auxin transport inhibitor (component b) application rates are given as “g ai/ha.”
(§4) The treated plants and control plants were placed in a greenhouse as described above and watered by sub-irrigation to prevent wash-off of the test compounds. After 20-22 d, the condition of the test plants as compared with that of the control plants was determined visually and scored on a scale of 0 to 100 percent where 0 corresponds to no injury and 100 corresponds to complete kill.

[7] = test system: Polygonum convolvulus (wild buckwheat, POLCO); experiment: Greenhouse postemergence trial POLCO; type: in vivo
[8] = test system: Stellaria media (chickweed, STEME); experiment: Greenhouse postemergence trial STEME; type: in vivo
[9] = test system: Sinapis arvensis (wild mustard, SINAR); experiment: Greenhouse postemergence trial SINAR; type: in vivo; details: SINAR; alone 280 g/ha
Method: (§5) The plants were grown for 7-36 days (d) in a greenhouse with an approximate 14-hour (h) photo-period which was maintained at about 23° C. during the day and 22° C. during the night. Nutrients and water were added on a regular basis and supplemental lighting was provided with overhead metal halide 1000-Watt lamps as necessary. The plants were employed for testing when they reached the second or third true leaf stage.
(§6) The emulsifiable concentrates also included a safener, cloquintocet-mexyl, at 120 grams active ingredient per liter (g ai/L), unless otherwise noted below.
(§7) Control plants were sprayed in the same manner with the solvent blank. All pyridine carboxylate herbicide (component a) application rates are given as “g ae/ha” and all synthetic auxin herbicide or auxin transport inhibitor (component b) application rates are given as “g ai/ha.”
as §4

[10] = test system: Viola tricolor (wild pansy, VIOTR); experiment: Greenhouse postemergence trial VIOTR;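 further: greenhouse plants sprayed at second to third true leaf stage, injury rated visually after 20-22 d against solvent-blank sprayed controls, 0 meaning no injury and 100 complete kill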
[11] = test system: Glycine max (volunteer soybean, GLXMA); experiment: Greenhouse postemergence trial GLXMA; type: in vivo; details: Dichlorprop-K 280 g/ha (Table 40)
Method: as §1, §2, §3, §4

[12] = test system: Brassica napus (winter rape, BRSNW); experiment: Greenhouse postemergence trial BRSNW; type: in vivo; details: BRSNW; alone 280 g/ha
Method: as §1, §2, §3, §4

[13] = test system: Abutilon theophrasti (velvetleaf, ABUTH); experiment: Greenhouse postemergence trial ABUTH; type: in vivo; details: Dichlorprop-K 280 g/ha (Table 40)
[14] = test system: Amaranthus retroflexus (pigweed, AMARE); experiment: Greenhouse postemergence trial AMARE; type: in vivo;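 further: Greenhouse-grown plants sprayed at second to third true leaf stage, injury rated by eye after 20-22 d versus solvent-blank sprayed controls, 0 = no injury, 100 = complete kill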
Method: as §5, §6, §7, §4

[15] = test system: Matricaria chamomilla (wild chamomile, MATCH); experiment: Greenhouse postemergence trial MATCH; type: in vivo; details: MATCH; alone 280 g/ha;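 further: greenhouse plants sprayed at second to third true leaf stage, injury rated by eye 20-22 d later versus solvent-blank controls on 0–100 scale, 0 no injury, 100 complete kill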
[16] = test system: Veronica hederifolia (ivyleaf speedwell, VERHE); experiment: Greenhouse postemergence trial VERHE; type: in vivo; details: c1-3 Compound A 7.5/10/15; c4-5 Fluroxypyr-MHE 100/140; c6-8, c9-11 A 7.5/10/15 + Fluroxypyr-MHE 100, 140 g/ha
[17] = test system: Triticum aestivum (winter wheat, TRZAW); experiment: Greenhouse postemergence crop phytotoxicity TRZAW; type: in vivo; details: c1-3 Compound A 7.5/10/15; c4-5 Fluroxypyr-MHE 100/140; c6-8, c9-11 A 7.5/10/15 + Fluroxypyr-MHE 100, 140 g/ha
[18] = test system: Anthemis arvensis (field chamomile, ANTAR); experiment: Greenhouse postemergence trial ANTAR; type: in vivo; details: c1-3 Compound A 7.5/10/15; c4-5 Fluroxypyr-MHE 100/140; c6-8, c9-11 A 7.5/10/15 + Fluroxypyr-MHE 100, 140 g/ha
Method: as §1, §2, §3, §4

[19] = test system: Lamium purpureum (purple deadnettle, LAMPU); experiment: Greenhouse postemergence trial LAMPU; details: c1-3 Compound A 7.5/10/15; c4-5 Fluroxypyr-MHE 100/140; c6-8, c9-11 A 7.5/10/15 + Fluroxypyr-MHE 100, 140 g/ha
[20] = test system: Matricaria inodora (false chamomile, MATIN); experiment: Greenhouse postemergence trial MATIN; type: in vivo; details: c1-3 Compound A 7.5/10/15; c4-5 Fluroxypyr-MHE 100/140; c6-8, c9-11 A 7.5/10/15 + Fluroxypyr-MHE 100, 140 g/ha
[21] = test system: Galium aparine (cleavers, GALAP); experiment: Greenhouse postemergence trial GALAP; type: in vivo; details: c1-3 Compound A 7.5/10/15; c4-5 Fluroxypyr-MHE 100/140; c6-8, c9-11 A 7.5/10/15 + Fluroxypyr-MHE 100, 140 g/ha
Method: as §1, §2, §3, §4

[22] = test system: Triticum aestivum (spring wheat, TRZAS); type: in vivo; details: c1-3 Compound A 7.5/10/15; c4-5 Fluroxypyr-MHE 100/140; c6-8, c9-11 A 7.5/10/15 + Fluroxypyr-MHE 100, 140 g/ha
Method: as §1, §2, §3, §4

[23] = test system: Papaver rhoeas (corn poppy), herbicide-resistant (PAPRH-R); experiment: Greenhouse postemergence trial PAPRH-R; type: in vivo; details: c1-3 Compound A 7.5/10/15; c4-5 Fluroxypyr-MHE 100/140; c6-8, c9-11 A 7.5/10/15 + Fluroxypyr-MHE 100, 140 g/ha
[24] = test system: Hordeum vulgare (spring barley, HORVS); type: in vivo; details: c1-3 Compound A 7.5/10/15; c4-5 Fluroxypyr-MHE 100/140; c6-8, c9-11 A 7.5/10/15 + Fluroxypyr-MHE 100, 140 g/ha
[25] = test system: Veronica persica (bird's-eye speedwell, VERPE); experiment: Greenhouse postemergence trial VERPE; type: in vivo; details: c1-3 Compound A 7.5/10/15; c4-5 Fluroxypyr-MHE 100/140; c6-8, c9-11 A 7.5/10/15 + Fluroxypyr-MHE 100, 140 g/ha
Method: as §1, §2, §3, §4

[26] = test system: Hordeum vulgare (winter barley, HORVW); experiment: Greenhouse postemergence crop phytotoxicity HORVW; type: in vivo; details: c1-3 Compound A 7.5/10/15; c4-5 Fluroxypyr-MHE 100/140; c6-8, c9-11 A 7.5/10/15 + Fluroxypyr-MHE 100, 140 g/ha
[27] = test system: Viola arvensis (field violet, VIOAR); experiment: Greenhouse postemergence trial VIOAR; type: in vivo; details: c1-3 Compound A 7.5/10/15; c4-5 Fluroxypyr-MHE 100/140; c6-8, c9-11 A 7.5/10/15 + Fluroxypyr-MHE 100, 140 g/ha
Method: as §1, §2, §3, §4

[28] = test system: Capsella bursa-pastoris (shepherd's purse, CAPBP); experiment: Greenhouse postemergence trial CAPBP; type: in vivo; details: c1-3 Compound A 7.5/10/15; c4-5 Fluroxypyr-MHE 100/140; c6-8, c9-11 A 7.5/10/15 + Fluroxypyr-MHE 100, 140 g/ha
[29] = test system: Cyanus segetum (cornflower, CENCY); experiment: Greenhouse postemergence trial CENCY; type: in vivo; details: c1-3 Compound A 7.5/10/15; c4-5 Fluroxypyr-MHE 100/140; c6-8, c9-11 A 7.5/10/15 + Fluroxypyr-MHE 100, 140 g/ha
Method: as §1, §2, §3, §4

[30] = test system: Papaver rhoeas (corn poppy, PAPRH); experiment: Greenhouse postemergence trial PAPRH; type: in vivo; details: c1-3 Compound A 7.5/10/15; c4-5 Fluroxypyr-MHE 100/140; c6-8, c9-11 A 7.5/10/15 + Fluroxypyr-MHE 100, 140 g/ha
[31] = test system: Matricaria discoidea (pineapple weed, MATMT); experiment: Greenhouse postemergence trial MATMT; type: in vivo; details: c1-3 Compound A 7.5/10/15; c4-5 Fluroxypyr-MHE 100/140; c6-8, c9-11 A 7.5/10/15 + Fluroxypyr-MHE 100, 140 g/ha
[32] = Dichlorprop-K 280 g/ha (Table 40)
[33] = c1-3 Compound A 7.5/10/15, c4-5 Fluroxypyr-MHE 100/140, c6-8, c9-11 A 7.5/10/15 + Fluroxypyr-MHE 100, 140 g/ha

CC(Oc1ccc(Cl)cc1Cl)C(=O)[O-].[K+] (centres unmarked) [Dichlorprop-K]
% visual injury (Obs) ([1]; CHEAL, alone 280 g/ha): 70%
CHEAL % visual injury Obs [1, 32]: 60%
IPOHE % visual injury Obs [2]: 75%
% visual injury (Obs) ([3]; CIRAR, alone 280 g/ha): 15%
CIRAR % visual injury Obs [3, 32]: 63%
RUMOB % visual injury Obs [4]: 73%
KCHSC % visual injury Obs [5, 32]: 63%
% visual injury (Obs) ([5]; KCHSC, alone 280 g/ha): 60%
HELAN % visual injury Obs [6]: 90%
POLCO % visual injury Obs [7, 32]: 0%
% visual injury (Obs) ([7]; POLCO, alone 280 g/ha): 18%
STEME % visual injury Obs [8, 32]: 0%
% visual injury (Obs) [9]: 78%
VIOTR % visual injury Obs [10, 32]: 65%
GLXMA % visual injury Obs [11]: 33%
% visual injury (Obs) [12]: 63%
ABUTH % visual injury Obs [13]: 40%
% visual injury (Obs) ([14]; AMARE, alone 280 g/ha): 85%
AMARE % visual injury Obs [14, 32]: 10%
% visual injury (Obs) [15]: 20%

CCCCCCC(C)OC(=O)COc1nc(F)c(Cl)c(N)c1Cl (centres unmarked) [Fluroxypyr-MHE, fluroxypyr-meptyl, reference compound]
% visual injury [16]: 30% and 60%
% visual injury (crop phytotoxicity) [17]: 0%
% visual injury [18]: 30% and 35%
% visual injury [19]: 60% and 65%
% visual injury [20]: 10% and 15%
% visual injury [21]: 85% and 95%
% visual injury (crop phytotoxicity) [22]: 0%
% visual injury [8, 33]: 70% and 75%
% visual injury [23]: 10%
% visual injury (crop phytotoxicity) [24]: 0%
% visual injury [25]: 70% and 85%
% visual injury [10, 33]: 50%
% visual injury (crop phytotoxicity) [26]: 0%
% visual injury [27]: 20%
% visual injury [28]: 0%
% visual injury [29]: 60% and 95%
% visual injury [30]: 10%
% visual injury [31]: 0%
